Laboratory results from paper PMC4150738 (Analytica chimica acta, 2014).
Like-named read-outs stand apart in the source and are kept apart here.

Assays:
[1] = Short-term stability in fortified plasma; type: physicochemical, human
[2] = for plasma concentration, Without hydrolysis / plasma concentration, Hydrolysis: LOQ 0.25 μg L^−1; for plasma concentration, Hydrolysis: with hydrolysis
[3] = High QC 750 μg L^−1, n=5, vs freshly fortified
[4] = Low QC 0.75 μg L^−1, n=5, vs freshly fortified
[5] = Medium QC 25 μg L^−1, n=5, vs freshly fortified
[6] = rat plasma, 0.5 mg kg-1 MDPV ip, 10 min
[7] = rat plasma, 0.5 mg kg-1 MDPV ip, 20 min
[8] = rat plasma, 0.5 mg kg-1 MDPV ip, 30 min
[9] = rat plasma, 0.5 mg kg-1 MDPV ip, 60 min
[10] = rat plasma, 0.5 mg kg-1 MDPV ip, 120 min
[11] = rat plasma, 0.5 mg kg-1 MDPV ip, 240 min
[12] = rat plasma, 0.5 mg kg-1 MDPV ip, 480 min
[13] = rat plasma, 0.5 mg kg-1 MDPV sc, 10 min
[14] = rat plasma, 0.5 mg kg-1 MDPV sc, 20 min
[15] = rat plasma, 0.5 mg kg-1 MDPV sc, 30 min
[16] = rat plasma, 0.5 mg kg-1 MDPV sc, 60 min
[17] = rat plasma, 0.5 mg kg-1 MDPV sc, 120 min
[18] = rat plasma, 0.5 mg kg-1 MDPV sc, 240 min
[19] = rat plasma, 0.5 mg kg-1 MDPV sc, 480 min

## CCCC(C(=O)c1ccc(O)c(O)c1)N1CCCC1 (stereo not shown) [3,4-catechol-PV, 3,4-dihydroxypyrovalerone]
[1]; [3]
  Stability (% difference) 3 freeze-thaw cycles: −3.6 % difference
  Stability (% difference) 72h at 4°C: −3 % difference
[1]; [4]
  Stability (% difference) 3 freeze-thaw cycles: −3.2 % difference
  Stability (% difference) 72h at 4°C: −7.3 % difference
[1]; [5]
  Stability (% difference) 3 freeze-thaw cycles: −2.6 % difference
  Stability (% difference) 72h at 4°C: 6.5 % difference
[2]; rat plasma after 0.5 mg kg-1 MDPV ip or sc, with vs without hydrolysis
  change of plasma concentration without the deconjugation step (hydrolysis): greatly decreased
[2]; rat plasma after MDPV, concluded from hydrolysis comparison
  form present in rat plasma: primarily present as the conjugated forms
[2]; rat plasma, 0.5 mg kg-1 MDPV ip, 0 min (before dosing)
  plasma concentration, Without hydrolysis: <LOQ
[2]; [6]
  plasma concentration, Hydrolysis: 4.3 ng/mL
  plasma concentration, Without hydrolysis: <LOQ
[2]; [7]
  plasma concentration, Hydrolysis: 5.1 ng/mL
  plasma concentration, Without hydrolysis: <LOQ
[2]; [8]
  plasma concentration, Hydrolysis: 4.9 ng/mL
  plasma concentration, Without hydrolysis: <LOQ
[2]; [9]
  plasma concentration, Hydrolysis: 3.7 ng/mL
  plasma concentration, Without hydrolysis: <LOQ
[2]; [10]
  plasma concentration, Hydrolysis: 9.6 ng/mL
  plasma concentration, Without hydrolysis: <LOQ
[2]; [11]
  plasma concentration, Hydrolysis: 11.8 ng/mL
  plasma concentration, Without hydrolysis: <LOQ
[2]; [12]
  plasma concentration, Hydrolysis: 5.3 ng/mL
  plasma concentration, Without hydrolysis: <LOQ
[2]; rat plasma, 0.5 mg kg-1 MDPV sc, 0 min (before dosing)
  plasma concentration, Without hydrolysis: <LOQ
[2]; [13]
  plasma concentration, Hydrolysis: 1.3 ng/mL
  plasma concentration, Without hydrolysis: <LOQ
[2]; [14]
  plasma concentration, Hydrolysis: 2.7 ng/mL
  plasma concentration, Without hydrolysis: <LOQ
[2]; [15]
  plasma concentration, Hydrolysis: 3.1 ng/mL
  plasma concentration, Without hydrolysis: <LOQ
[2]; [16]
  plasma concentration, Hydrolysis: 3.8 ng/mL
  plasma concentration, Without hydrolysis: <LOQ
[2]; [17]
  plasma concentration, Hydrolysis: 9.4 ng/mL
  plasma concentration, Without hydrolysis: <LOQ
[2]; [18]
  plasma concentration, Hydrolysis: 9.8 ng/mL
  plasma concentration, Without hydrolysis: <LOQ
[2]; [19]
  plasma concentration, Hydrolysis: 3.6 ng/mL
  plasma concentration, Without hydrolysis: <LOQ
[2]; rat plasma, 0.5 mg kg^−1 MDPV intraperitoneal, samples 10-480 min after dosing
  plasma concentration range after intraperitoneal dosing: 3.7 to 11.8 ng/mL
[2]; rat plasma, 0.5 mg kg^−1 MDPV subcutaneous, samples 10-480 min after dosing
  plasma concentration range after the subcutaneous dose: 1.3 to 9.8 ng/mL
